Experimental data from PMC10146558, “Highly Cytotoxic Copper(II) Mixed-Ligand Quinolinonato Complexes: Pharmacokinetic Properties and Interactions with Drug Metabolizing Cytochromes P450” (Pharmaceutics, 2023).
Like-named read-outs stand apart in the source and are kept apart here.

What was measured:
human bactosomes CYP2A6 = biological target: T1, human bactosomes CYP2A6 (Homo sapiens, UniProt P11509); assay: Isothermal titration calorimetry, bactosomes CYP2A6; type: binding; details: 25 °C; for n, CYP2A6B: ITC stoichiometry, pH 7.4; for Ka, CYP2A6B / ΔG, CYP2A6B / ΔH, CYP2A6B / ΔS, CYP2A6B / Kd: ITC, pH 7.4, 1% DMSO; for Kd: read-out: Kd, CYP2A6B
T1 construct: purchased BD Biosciences (Franklin Lakes, NJ, USA); host or cells: bacterial membranes ('bactosomes')
T1 sequence (P11509 1-494): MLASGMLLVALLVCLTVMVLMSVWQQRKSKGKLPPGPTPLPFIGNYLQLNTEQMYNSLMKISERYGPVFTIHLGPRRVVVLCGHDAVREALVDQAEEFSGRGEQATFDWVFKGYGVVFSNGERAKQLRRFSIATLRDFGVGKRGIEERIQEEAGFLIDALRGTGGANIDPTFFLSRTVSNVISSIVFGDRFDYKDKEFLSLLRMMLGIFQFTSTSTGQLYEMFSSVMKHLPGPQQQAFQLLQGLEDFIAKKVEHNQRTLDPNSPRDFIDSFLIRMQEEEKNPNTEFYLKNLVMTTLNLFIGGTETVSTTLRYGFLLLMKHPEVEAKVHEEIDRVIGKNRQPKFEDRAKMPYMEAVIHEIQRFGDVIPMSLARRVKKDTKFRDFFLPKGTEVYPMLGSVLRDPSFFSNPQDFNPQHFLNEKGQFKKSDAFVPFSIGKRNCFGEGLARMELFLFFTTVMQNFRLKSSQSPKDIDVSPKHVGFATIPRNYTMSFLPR
Protocol: (§1) The interactions of the compounds with selected forms of cytochrome P450, i.e., human bactosomes CYP1A2, CYP2A6, CYP3A4, and recombinant human CYP3A4, were studied using isothermal titration calorimetry (ITC). ITC experiments were performed at 25 °C with a Nano ITC Low Volume (TA Instruments, New Castle, DE, USA). During all measurements, 20 injections of 16µM of the studied compound (2.5 µL each) were titrated into 250 µL of protein (2 µM) with time intervals of 300 s and a stirring speed of 250 rpm. All ITC experiments were conducted with degassed buffered solutions (100 mM phosphate buffer, pH 7.4) in the presence of 1% DMSO. Control experiments included the titration of each complex solution into a buffer. The corrected data refer to experimental data after subtraction of the buffer control data from the compounds data. The resulting thermograms were analysed using the “Independent” model within the NanoAnalyze software (TA Instruments, New Castle, DE, USA).

human bactosomes CYP3A4 = biological target: T2, human bactosomes CYP3A4 (Homo sapiens, UniProt P08684); assay: Isothermal titration calorimetry, bactosomes CYP3A4; type: binding; details: 25 °C; for n, CYP3A4B: ITC stoichiometry, pH 7.4; for Ka, CYP3A4B / ΔG, CYP3A4B / ΔH, CYP3A4B / ΔS, CYP3A4B / Kd: ITC, pH 7.4, 1% DMSO; for Kd: read-out: Kd, CYP3A4B
T2 construct: purchased Cypex (Dundee, UK); host or cells: bacterial membranes ('bactosomes')
Protocol: as §1

[1] = test system: human liver microsomal cytochrome P450s; details: pH 7.4
Protocol: (§2) The cuvette contained microsomes diluted to final concentration of CYP 1 µM in 50 mM potassium phosphate buffer (pH 7.4). The tested compounds were dissolved in the same buffer, and their concentrations in the experiments ranged from 0.002 to 33.310 µM. The UV-Visible spectra were recorded at room temperature by repetitive scanning between 300 and 700 nm using Varian 500 UV/VIS spectrophotometer (Agilent Technologies, Wakefield, MA, USA). Changes of absorbance in the range of the Soret’s region (380–450 nm) were plotted against the concentration of the studied compounds. Data were analysed using GraphPad Prism 6 software (La Jolla, CA, USA).

CYP2C9 = biological target: T3, CYP2C9 (Homo sapiens, UniProt P11712); assay: CYP2C9 activity (diclofenac 4′-hydroxylation) in human liver microsomes; type: biochemical; details: for Type of inhibition, CYP2C9 / Ki: Dixon and Lineweaver–Burk plots; for Ki: substrate ½ Km to 4 Km; for IC50: human liver microsomes, diclofenac 4′-hydroxylation
T3 construct: Cryopreserved pooled human liver microsomes were obtained from Xenotech; tissue Xenotech (Lenexa, KS, USA); host or cells: pooled human liver microsomes
Protocol: For each enzyme assay, the preliminary experiments to determine Michaelis constant (Km) and limiting velocity (Vmax) were performed to calculate the time of incubation (the specified time for which the reaction is still linear) and the values of substrate concentration (in the range corresponding to the value of Km).
The reaction mixtures were buffered by 0.1 M potassium phosphate buffer (pH 7.4) and contained a NADPH-generating system consisting of the isocitrate dehydrogenase (6 U/mL), NADP^+ (0.5 mM), isocitric acid (4 mM), and MgSO4 (5 mM). The final concentration levels of complexes were obtained by diluting a 10 mM solution with dimethyl sulfoxide (DMSO). It is known that DMSO can in some cases inhibit P450; the following measures were thus applied: (a) control samples containing organic solvent without the tested compounds were prepared and used as references; (b) DMSO levels were maintained below 0.1% to minimise the inhibition. Inhibition experiments were performed using five concentration levels of the tested compounds in the range of 10–100 µM. The maximum concentration was chosen so that in the case of inhibition, it would be possible to determine the inhibitory effect of the complexes and characterise them by determining the IC50 value. Additionally, an inhibitor-free control was used as a reference. Incubations were executed in two independent batches, and the samples were prepared and measured in triplicate at 37 °C. Analyses of the metabolites formed from the specific substrates were performed by HPLC using the Prominence system (Shimadzu, Kyoto, Japan) equipped with a LiChroCART 250-4 LiChrospher 100 RP-18 column, Chromolith® HighResolution RP-18 end-capped column (Merck, Darmstadt, Germany), or Kinetex Biphenyl column (Phenomenex, Torrace, CA, USA).
The apparent Ki values were determined by additional measurements using substrate concentrations corresponding to 1/2 Km, Km, 2 Km, and 4 Km in the case of inhibition. The type of model was selected on the basis of the Lineweaver–Burk and Dixon plots. The values of IC50 were obtained by analysing the plot of the percentage of activity remaining after inhibition versus the logarithm of the inhibitor concentration using the GraphPad Prism 6 software (La Jolla, CA, USA).

[2] = Parallel artificial membrane permeability assay (PAMPA); type: in vitro ADME; details: category according to log Papp
Protocol: Pharmacological properties of the complexes 1 and 2, including stability in plasma, microsomal stability, binding to plasma proteins, and permeability through an artificial membrane, were tested under in vitro conditions and according to methods described in previous reports. Analysis of the samples was performed using Agilent RapidFire 300 High-Throughput Mass Spectrometry System (Agilent Technologies, Wakefield, MA, USA) with subsequent detection using the mass spectrometer Qtrap 5500 (AB Sciex, Concord, Toronto, ON, Canada), abbreviation RF-MS. […]
PAMPA was performed with the Millipore MultiScreen filter MultiScreen-IP Durapore 0.45-μm plates and receiver plates (Merck Millipore, Burlington, MA, USA). […] The permeation of compounds across a filter membrane (activation by 10% lecithin in dodecane) was quantified by RF/MS after 18 h incubation at room temperature. The apparent permeability, logPe, was calculated from the following equation: logPe = log{C× − ln(1 − drugA/drugE)}; C = (VA × VD)/{(VD + VA) × A × T}, where VD and VA are the volumes of the donor and acceptor compartments, respectively; A is the active surface area of the membrane; T is the time of the incubation in seconds; and drugA or drugE represents the concentration of the tested compounds in the acceptor compartment and in the solution in theoretical equilibrium.

human bactosomes CYP1A2 = biological target: T4, human bactosomes CYP1A2 (Homo sapiens, UniProt P05177); assay: Isothermal titration calorimetry, bactosomes CYP1A2; type: binding; details: 25 °C, 100 mM phosphate buffer pH 7.4, 1% DMSO
T4 construct: purchased BD Biosciences (Franklin Lakes, NJ, USA); host or cells: bacterial membranes ('bactosomes')
T4 sequence (P05177 1-516): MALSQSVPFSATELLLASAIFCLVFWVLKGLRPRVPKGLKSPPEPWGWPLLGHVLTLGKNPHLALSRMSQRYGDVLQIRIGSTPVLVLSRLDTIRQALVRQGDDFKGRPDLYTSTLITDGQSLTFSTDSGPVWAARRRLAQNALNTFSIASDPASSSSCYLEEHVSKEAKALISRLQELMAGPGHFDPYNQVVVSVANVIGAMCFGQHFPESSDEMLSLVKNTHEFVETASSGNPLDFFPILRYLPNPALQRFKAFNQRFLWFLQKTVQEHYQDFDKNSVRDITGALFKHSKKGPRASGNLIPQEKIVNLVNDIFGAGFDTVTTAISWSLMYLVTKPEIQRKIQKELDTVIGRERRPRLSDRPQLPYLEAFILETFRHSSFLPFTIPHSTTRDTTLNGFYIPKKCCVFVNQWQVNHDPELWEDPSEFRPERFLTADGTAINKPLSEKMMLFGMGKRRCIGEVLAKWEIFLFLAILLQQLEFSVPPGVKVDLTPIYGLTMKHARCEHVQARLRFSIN
Protocol: as §1

[3] = test system: human liver microsomal cytochrome P450s; assay: Difference spectra (UV-visible spectral titration) with human liver microsomes; details: read-out: Ks (spectral binding constant); spectral differences at 386 nm, CYP 1 µM, pH 7.4, room temperature
Protocol: as §2

T3 sequence (P11712 whole entry): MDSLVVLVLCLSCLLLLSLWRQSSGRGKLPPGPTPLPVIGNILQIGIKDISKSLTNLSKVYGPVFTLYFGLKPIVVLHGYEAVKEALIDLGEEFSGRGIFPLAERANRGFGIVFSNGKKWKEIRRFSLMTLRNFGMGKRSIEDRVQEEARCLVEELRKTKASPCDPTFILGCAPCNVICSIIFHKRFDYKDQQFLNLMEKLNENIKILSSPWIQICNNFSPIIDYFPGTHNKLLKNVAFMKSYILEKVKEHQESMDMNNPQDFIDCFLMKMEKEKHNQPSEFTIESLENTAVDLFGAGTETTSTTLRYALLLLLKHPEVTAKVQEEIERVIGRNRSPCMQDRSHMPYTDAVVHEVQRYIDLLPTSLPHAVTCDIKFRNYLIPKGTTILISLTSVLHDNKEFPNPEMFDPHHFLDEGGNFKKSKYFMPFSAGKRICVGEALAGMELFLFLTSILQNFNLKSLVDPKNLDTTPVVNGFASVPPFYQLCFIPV
T2 sequence (P08684 whole entry): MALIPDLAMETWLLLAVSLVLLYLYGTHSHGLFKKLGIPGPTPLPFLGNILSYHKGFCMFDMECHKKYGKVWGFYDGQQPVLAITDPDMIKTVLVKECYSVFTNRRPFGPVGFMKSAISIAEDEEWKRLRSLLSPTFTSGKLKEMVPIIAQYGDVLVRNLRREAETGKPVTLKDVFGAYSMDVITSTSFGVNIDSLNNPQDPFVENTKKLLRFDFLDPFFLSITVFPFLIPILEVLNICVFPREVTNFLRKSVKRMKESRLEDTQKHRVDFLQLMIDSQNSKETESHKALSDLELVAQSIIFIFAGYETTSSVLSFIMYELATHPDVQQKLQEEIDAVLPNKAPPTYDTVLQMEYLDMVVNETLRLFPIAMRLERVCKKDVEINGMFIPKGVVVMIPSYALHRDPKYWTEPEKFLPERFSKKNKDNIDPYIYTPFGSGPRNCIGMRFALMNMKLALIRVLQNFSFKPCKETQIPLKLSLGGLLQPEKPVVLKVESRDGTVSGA

SMILES	n, CYP2A6B (human bactosomes CYP2A6)	Ka, CYP2A6B (human bactosomes CYP2A6) [M⁻¹]	ΔG, CYP2A6B (human bactosomes CYP2A6)	ΔH, CYP2A6B (human bactosomes CYP2A6) [kcal/mol]	ΔS, CYP2A6B (human bactosomes CYP2A6) [J/mol.K]	Kd (human bactosomes CYP2A6) [nM]	n, CYP3A4B (human bactosomes CYP3A4)	Ka, CYP3A4B (human bactosomes CYP3A4) [M⁻¹]	ΔG, CYP3A4B (human bactosomes CYP3A4)	ΔH, CYP3A4B (human bactosomes CYP3A4) [kcal/mol]	ΔS, CYP3A4B (human bactosomes CYP3A4) [J/mol.K]	Kd (human bactosomes CYP3A4) [nM]	Kd [1] [nM]	Type of inhibition, CYP2C9 (CYP2C9)	Ki (CYP2C9) [nM]	IC50 (CYP2C9) [nM]	PAMPA Category [2]	ITC interaction with CYP1A2B (human bactosomes CYP1A2)	Kd [3] [nM]	CYP2C9 activity remaining, % of the control (CYP2C9; at 100 μM) [%]
Cc1cc2cccnc2c2ncccc12.O.O=[N+]([O-])[O-].O=c1c([O-])c(-c2ccccc2)[nH]c2ccccc12.[Cu+2] [complex 1]	0.801	1.04e+06	−40,050.9 J/mol	-7.603	27.64	962	0.911	1.92e+07	−41,558.7 J/mol	-19.13	−129	52.1	7590 ± 1800	non-competitive	2560 ± 370	16300	Low (those with log Papp < −5 were considered poorly permeable)	no interaction	–	–
Cc1cc2cccnc2c2ncccc12.F[B-](F)(F)F.O.O=c1c([O-])c(-c2ccccc2)[nH]c2ccccc12.[Cu+2] [complex 2]	1.071	3.12e+06	−37,070.9 J/mol	-5.507	47.06	321	0.859	2.17e+07	−41,881.2 J/mol	-14.99	−69.86	46.1	–	fully non-competitive	920 ± 250	37200	Low (those with log Papp < −5 were considered poorly permeable)	no interaction	8560 ± 1000	7
